# Assay results published in patent publication US5324728A, “Naphthoic acid derivative” (Fujirebio Inc., priority 1990, dated 1994).
# Tests used:
# tracheal chain = assay: Histamine antagonism (isolated guinea pig tracheal chain contraction); type: cell-based; details: Cavia porcellus, 5 min; 10^-5 M test compound; 3×10^-5 M histamine hydrochloride
# Protocol: Guinea pigs were sacrificed and the tracheae were isolated. Each trachea was cut open at the center of the tracheal cartilage, and was cut in the vertical direction to separate into individual segments. Three of these segments were combined to form a tracheal chain. The tracheal chain was suspended in a Magnus tube filled with a Tyrode's solution (NaCl: 137 mX, KCl: 2.7 mM, CaCl2 : […], MgCl2 : 1.1 mM, NaHPO4 : 0.4 mM, NaHCO3 : 12.0 mM, glucose: 5.6 mM) kept at 37° C., while applying a load of 0.5 g. A mixed gas consisting of 95% of O2 and 5% of CO2 was constantly passed through the tube, and the contraction of the smooth muscle was recorded on a polygraph (U-228 manufactured by NIPPON DENKI KAGAKU) via an isotonic transducer (TD-112S manufactured by Nihon Koden). Each test compound was incubated for 5 minutes before the addition of 3×10^-5 M of histamine hydrochloride (a product of Wako Pure Chemical Industries, Ltd.).
# 5-lipoxygenase = target: T1, 5-lipoxygenase (Rattus norvegicus, UniProt P12527); assay: 5-Lipoxygenase activity-inhibiting action (5-HETE biosynthesis, rat basophil leukemia-1 cell supernatant); type: biochemical
# T1 construct: The resulting supernatant liquid was used as an enzymatic solution; endogenous in cells; host or cells: rat basophil leukemia-1 (RBL-1) cells, supernatant after sonication
# T1 sequence (P12527 1-673): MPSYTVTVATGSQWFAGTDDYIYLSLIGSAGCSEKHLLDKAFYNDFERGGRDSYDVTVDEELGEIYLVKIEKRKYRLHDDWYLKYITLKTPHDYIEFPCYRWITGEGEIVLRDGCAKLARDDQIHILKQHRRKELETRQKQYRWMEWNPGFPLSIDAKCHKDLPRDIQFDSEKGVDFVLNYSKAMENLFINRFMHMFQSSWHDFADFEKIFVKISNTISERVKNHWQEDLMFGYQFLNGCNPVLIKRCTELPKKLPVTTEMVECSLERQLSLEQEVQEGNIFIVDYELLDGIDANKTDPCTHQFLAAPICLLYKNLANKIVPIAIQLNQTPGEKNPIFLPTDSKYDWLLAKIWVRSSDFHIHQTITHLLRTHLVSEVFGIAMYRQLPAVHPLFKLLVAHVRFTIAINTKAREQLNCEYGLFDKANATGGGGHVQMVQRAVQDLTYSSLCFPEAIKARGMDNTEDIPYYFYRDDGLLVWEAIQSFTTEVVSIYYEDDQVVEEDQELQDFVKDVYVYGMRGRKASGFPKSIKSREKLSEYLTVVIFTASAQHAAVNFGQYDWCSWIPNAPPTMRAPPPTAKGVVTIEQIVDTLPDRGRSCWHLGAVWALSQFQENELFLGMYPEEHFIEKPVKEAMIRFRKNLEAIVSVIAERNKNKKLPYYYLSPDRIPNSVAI
# Protocol: 5-Lipoxygenase activity-inhibiting action
# Rat basophil leukemia-1 cells were suspended in a 50 mM phosphate buffer solution (PBS) of pH 7.0 containing 1 mM of EDTA, 0.1% of gelatin and 14 μM of indometacin so that the resulting suspension contained 5×10^7 cels cells/ml ml. The suspension was subjected to an ultrasonic treatment and then to centrifugation (10,000G, 20 minutes). The resulting supernatant liquid was used as an enzymatic solution. 10 μl of a test compound solution was added to 460 μl of the enzymatic solution and a reaction was conducted at 37° C. for 5 minutes. Thereto were added 7.4 KBq of ^14 C-arachidonic acid and a 100 mM aqueous calcium chloride solution, and a reaction was conducted at 37° C. for 10 minutes. The reaction mixture was ice-cooled and then adjusted to pH 3 with 1N hydrochloric acid to terminate the reaction. Thereafter, extraction with 5 ml of chloroform was conducted. The extract was subjected to evaporation to dryness in the presence of nitrogen gas, and the residue was dissolved in a 2:1 mixture of chloroform and methanol. The solution was developed by thin-layer chromatography using Kieselgel 60 F254, according to the method of Jakschik, B. A. et al. [Biachen. Biophys. Res. Commun. 95, 103 (1980)]. The radioactivity of 5-hydroxyeicosatetraenoic acid (5-HETE) was measured by a liquid scintillation counter (LSC-900 manufactured by Aroka) to determine the ratio of 5-HETE biosynthesis inhibition of test compound-added group to control group, after which there was determined a concentration of test compound at which the activity of 5-lipoxygenase was inhibited by 50%, i.e. an IC50. The test compound was used in a diluted form by dissolving it in dimethyl sulfoxide. The results are shown in Tables 1, 2 and 3 which appear later.
# mast cells = assay: Membrane-stabilizing action (mast cell degranulation); type: cell-based; details: Rattus norvegicus, 10^-4 M
# Protocol: Membrane-stabilizing action
# This test was conducted according to the method of Schwartz, J. et al. [Int. Arch. Allergy 30, 67 (1966)].
# That is, 10 ml each of Hnak's balanced salt solution containing 10 units/ml of heparin was administered to rats intraperitoneally. After gentle massage of the abdomen for 2 minutes, peritoneal exudate cells (PEC) were obtained and washed 3 times with PBS containing 0.1% of bovine serum albumin (BSA). Mast cells in the suspension of PEC were stained with 0.2% of Neutral Red, and PEC were adjusted to a concentration of 4×10^5 mast cells/ml using PBS containing 0.1% of BSA. The cell suspension (50 μl) was incubated with 50 μl of a test compound solution at 37° C. for 5 minutes, then challenged with anti-egg albumin rat serum (50 μl, 1:40) and egg albumin (50 μl, 10 mg/ml) and further incubation was performed for 10 minutes. The reaction mixture was ice-cooled to terminate the reaction. Thereafter the number of mast cells undergoing degranulation was assessed under microscope observation to determine the menbrane-stabilizing action of the test compound.
# TXA2 synthetase = target: T2, TXA2 synthetase (Homo sapiens, UniProt P24557); assay: TX synthesis-inhibiting action (thromboxane synthetase kit, human platelet microsome); type: biochemical; details: 3 × 10^-6 M
# T2 construct: human platelet microsome fraction; purchased Funakoshi: Eldan Tech; host or cells: human platelet microsome fraction (thromboxane synthetase kit)
# T2 sequence (P24557 1-533): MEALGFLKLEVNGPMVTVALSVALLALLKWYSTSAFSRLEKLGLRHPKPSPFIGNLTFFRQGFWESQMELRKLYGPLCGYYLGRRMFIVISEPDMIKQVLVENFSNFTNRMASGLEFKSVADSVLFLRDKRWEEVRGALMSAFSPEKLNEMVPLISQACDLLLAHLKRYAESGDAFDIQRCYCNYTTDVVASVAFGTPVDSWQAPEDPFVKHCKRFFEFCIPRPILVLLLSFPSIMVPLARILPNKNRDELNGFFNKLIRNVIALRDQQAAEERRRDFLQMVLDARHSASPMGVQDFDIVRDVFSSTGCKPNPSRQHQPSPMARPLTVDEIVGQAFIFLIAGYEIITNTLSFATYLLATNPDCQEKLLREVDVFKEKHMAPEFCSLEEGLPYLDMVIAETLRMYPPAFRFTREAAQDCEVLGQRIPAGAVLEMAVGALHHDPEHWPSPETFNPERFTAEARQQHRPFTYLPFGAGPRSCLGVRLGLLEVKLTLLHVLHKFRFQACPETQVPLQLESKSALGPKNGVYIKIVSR
# Protocol: TX synthesis-inhibiting action
# TXA2 synthetase activity was measured by the use of a thromboxane synthetase kit (Funakoshi: Eldan Tech). That is, 0.97 mg of a human platelet microsome fraction was suspended in 1 m of a 50 mM tris-0.1M sodium chloride buffer solution of pH 7.5, and the resulting suspension was ice-cooled. […] of the suspension was placed in a sample tube and a test compound was added thereto. The resulting mixture was preincubated at 25° C. exactly for 3 minutes. Thereto was added 2μ of an ice-cooled acetone solution containing 0.05 mg/m of PGH2, and the resulting mixture was incubated at 25° C. exactly for 3 minutes. 10μ of a 0.25 mM FeCl2 solution was added to terminate the reaction. The resulting mixture was allowed to stand at room temperature for 15 minutes and then subjected to centrifugation at 1,000 G at 4° C. for 10 minutes. The TXB2 content contained in the supernatant was measured by RIA (thromboxanes B2 [3H] RIA Kit: NEN Research Products). The test compound was dissolved in DMSO or distilled water before use. The test was performed in triplicate or quadruplicate assays.
smiles,measurement,setting,value
"O=C(NCCN1CCC(OC(c2ccccc2)c2ccccc2)CC1)c1cc2cc(O)ccc2cc1O [Example 35, N-[2-[4-(benzhydryloxy)piperidino]ethyl]-3,7-dihydroxy-2-naphthamide]",inhibition at 10 µM,tracheal chain,67.9%
same,IC50,5-lipoxygenase; Table 2,270 nM
"O=C(NCCN1CCC(OC(c2ccccc2)c2ccccc2)CC1)c1cc2cccc(OCc3ccncc3)c2cc1O [Example 43, N-[2-[4-(benzhydryloxy)piperidino]ethyl]-3-hydroxy-5-(4-pyridylmethoxyl)-2-naphthamide]",inhibition at 100 µM,mast cells,80.7%
same,inhibition at 10 µM,tracheal chain,48.2%
same,inhibition at 3 µM,TXA2 synthetase,75.6%
same,IC50,5-lipoxygenase; Table 2,110 nM
O=C(NCCN1CCN(CCSC(c2ccc(Cl)cc2)c2ccc(Cl)cc2)CC1)c1cc2cccc(O)c2cc1O [Example 21],inhibition at 100 µM,mast cells,100%
same,IC50,5-lipoxygenase; Table 1,250 nM
"O=C(NCCCCCSCc1cccs1)c1cc2cccc(O)c2cc1O [Example 44, N-[5-(2-thienylmethylthio)pentyl]-3,5-dihydroxy-2-naphthamide]",inhibition at 3 µM,TXA2 synthetase,61.8%
"CC(=O)Oc1cccc2cc(C(=O)NCCN3CCN(CCSCc4cccs4)CC3)c(O)cc12 [Example 4, N-[2-[4-(thienylmethylthio)ethyl-1-piperazinyl]ethyl]-5-acetoxy-3-hydroxy-2-naphthamide]",inhibition at 100 µM,mast cells,53.7%
same,IC50,5-lipoxygenase; Table 1,320 nM
"O=C(NCCN1CCC(OC(c2ccccc2)c2ccccc2)CC1)c1cc2cccc(O)c2cc1O [Example 34, N-[2-[4-(benzhydryloxy)piperidino]ethyl]-3,5-dihydroxy-2-naphthamide]",inhibition at 100 µM,mast cells,41%
same,inhibition at 10 µM,tracheal chain,64.7%
same,IC50,5-lipoxygenase; Table 1,150 nM
"O=C(NCCN1CCC(OC(c2ccccc2)c2ccccc2)CC1)c1cc2cccc(OCc3cccnc3)c2cc1O [Example 42, N-[2-[4-(benzhydryloxy)piperidino]ethyl]-3-hydroxy-5-(3-pyridylmethoxyl)-2-naphthamide]",inhibition at 100 µM,mast cells,60.1%
same,IC50,5-lipoxygenase; Table 1,5100 nM
CC(=O)Oc1cccc2cc(C(=O)NCCN3CCN(CCSC(c4ccncc4)c4ccc(Cl)cc4)CC3)c(O)cc12 (stereo not drawn) [Example 15],inhibition at 3 µM,TXA2 synthetase,73.2%
same,IC50,5-lipoxygenase; Table 3,300 nM
"CC(=O)Oc1cccc2cc(C(=O)NCCN3CCC(OC(c4ccccc4)c4ccccc4)CC3)c(O)cc12 [Example 5, N-[2-[4-(benzhydryloxy)piperidino]ethyl]-5-acetoxy-3-hydroxy-2-naphthamide]",inhibition at 100 µM,mast cells,96.5%
same,inhibition at 10 µM,tracheal chain,65.4%
same,IC50,5-lipoxygenase; Table 1,410 nM
